Results published in PubChem BioAssay AID256 (DTP/NCI, 2004).
Values joined by “and” are separate entries in the source; they are usually repeats but may differ in a detail not shown here. Equal entries are not always repeated. Toxic doses and inconclusive results are not listed. Rule for the calls: active = survival T/C of 150% or more; inactive = T/C below 125% in these data.

Test system: CD2F1 mice, L1210 leukemia ip, survival T/C
Assay: NCI In Vivo Anticancer Drug Screen. Data for tumor model L1210 Leukemia (intraperitoneal) in CD2F1 (CDF1) mice
Conditions: endpoint: mean survival time, higher = longer survival
Method in brief: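 Vehicle-treated tumor-bearing mice served as controls (C) for compound-treated mice (T). Reported figure is T divided by C.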

[1] = dose: 25.0 mg/kg/injection, schedule: Q01DX009 (ip), vehicle: Klucel (hydroxypropylcellulose) (HPC)
[2] = dose: 50.0 mg/kg/injection, schedule: Q01DX009 (ip), vehicle: Klucel (hydroxypropylcellulose) (HPC)
[3] = dose: 100.0 mg/kg/injection, schedule: Q01DX009 (ip), vehicle: Klucel (hydroxypropylcellulose) (HPC)
[4] = dose: 12.5 mg/kg/injection, schedule: Q01DX009 (ip), vehicle: saline with Tween-80
[5] = dose: 25.0 mg/kg/injection, schedule: Q01DX009 (ip), vehicle: saline with Tween-80
[6] = dose: 50.0 mg/kg/injection, schedule: Q01DX009 (ip), vehicle: saline with Tween-80
[7] = dose: 25.0 mg/kg/injection, schedule: Q04DX003 (ip), vehicle: saline with Tween-80
[8] = dose: 50.0 mg/kg/injection, schedule: Q04DX003 (ip), vehicle: saline with Tween-80
[9] = dose: 100.0 mg/kg/injection, schedule: Q01DX001 (ip), vehicle: saline with Tween-80
[10] = dose: 200.0 mg/kg/injection, schedule: Q01DX001 (ip), vehicle: saline with Tween-80
[11] = dose: 200.0 mg/kg/injection, schedule: Q01DX009 (ip), vehicle: saline with Tween-80
[12] = dose: 400.0 mg/kg/injection, schedule: Q01DX009 (ip), vehicle: saline with Tween-80
[13] = dose: 100.0 mg/kg/injection, schedule: Q04DX002 (ip), vehicle: saline with Tween-80
[14] = dose: 200.0 mg/kg/injection, schedule: Q04DX002 (ip), vehicle: saline with Tween-80
[15] = dose: 100.0 mg/kg/injection, schedule: Q01DX001 (ip), vehicle: saline
[16] = dose: 200.0 mg/kg/injection, schedule: Q01DX001 (ip), vehicle: saline
[17] = dose: 400.0 mg/kg/injection, schedule: Q01DX001 (ip), vehicle: saline
[18] = dose: 100.0 mg/kg/injection, schedule: Q01DX009 (ip), vehicle: saline with Tween-80
[19] = dose: 400.0 mg/kg/injection, schedule: Q01DX001 (ip), vehicle: saline with Tween-80
[20] = dose: 2.5 mg/kg/injection, schedule: Q01DX009 (ip), vehicle: Klucel (hydroxypropylcellulose) (HPC)
[21] = dose: 5.0 mg/kg/injection, schedule: Q01DX009 (ip), vehicle: Klucel (hydroxypropylcellulose) (HPC)
[22] = dose: 10.0 mg/kg/injection, schedule: Q01DX009 (ip), vehicle: Klucel (hydroxypropylcellulose) (HPC)
[23] = dose: 100.0 mg/kg/injection, schedule: Q04DX003 (ip), vehicle: saline with Tween-80
[24] = dose: 200.0 mg/kg/injection, schedule: Q04DX003 (ip), vehicle: saline with Tween-80

Measured: T/C

O=S(=O)(NN=C(c1ccccc1)c1ccccc1)c1ccccc1
inactive: dose: 12.5 mg/kg/injection, schedule: Q01DX009 (ip), vehicle: Klucel (hydroxypropylcellulose) (HPC) 96 % of control | [1] 100 % of control | [2] 92 % of control | [3] 94 % of control | dose: 200.0 mg/kg/injection, schedule: Q01DX009 (ip), vehicle: Klucel (hydroxypropylcellulose) (HPC) 92 % of control | dose: 400.0 mg/kg/injection, schedule: Q01DX009 (ip), vehicle: Klucel (hydroxypropylcellulose) (HPC) 92 % of control

ClC1=C(Cl)C(Cl)=C(Cl)C1=Cc1ccccc1
inactive: dose: 3.12 mg/kg/injection, schedule: Q01DX009 (ip), vehicle: saline with Tween-80 101 % of control | dose: 6.25 mg/kg/injection, schedule: Q01DX009 (ip), vehicle: saline with Tween-80 104 % of control | [4] 105 % of control | [5] 106 % of control | [6] 105 % of control

CCCN(CCC)CCCOC(=O)c1ccc([N+](=O)[O-])cc1
inactive: dose: 100.0 mg/kg/injection, schedule: Q04DX003 (ip), vehicle: saline 97 % of control | dose: 200.0 mg/kg/injection, schedule: Q04DX003 (ip), vehicle: saline 92 % of control | dose: 400.0 mg/kg/injection, schedule: Q04DX003 (ip), vehicle: saline 94 % of control

CC1=C(/C=C/C(C)=N/NC(N)=S)C(C)(C)CCC1
inactive: [4] 106 % of control | [5] 115 % of control | [7] 98 % of control | [8] 104 % of control

CN(C)CCOCCOc1ccc(C(C)(C)CC(C)(C)C)cc1
inactive: dose: 1.5 mg/kg/injection, schedule: Q01DX009 (ip), vehicle: saline with Tween-80 105 % of control | dose: 3.0 mg/kg/injection, schedule: Q01DX009 (ip), vehicle: saline with Tween-80 97 % of control | dose: 6.0 mg/kg/injection, schedule: Q01DX009 (ip), vehicle: saline with Tween-80 100 % of control

COC(=O)NCCCCl
inactive: dose: 37.5 mg/kg/injection, schedule: Q01DX007 (ip), vehicle: saline 94 % of control | dose: 75.0 mg/kg/injection, schedule: Q01DX007 (ip), vehicle: saline 103 % of control | dose: 150.0 mg/kg/injection, schedule: Q01DX007 (ip), vehicle: saline 97 % of control | dose: 300.0 mg/kg/injection, schedule: Q01DX007 (ip), vehicle: saline 94 % of control | dose: 600.0 mg/kg/injection, schedule: Q01DX007 (ip), vehicle: saline 94 % of control

COC(OC)c1[nH]c(=S)[nH]c(=O)c1Cc1cc(C)ccc1C
inactive: dose: 100.0 mg/kg/injection, schedule: Q04DX003 (ip), vehicle: saline sonified 101 % of control | dose: 200.0 mg/kg/injection, schedule: Q04DX003 (ip), vehicle: saline sonified 95 % of control | dose: 400.0 mg/kg/injection, schedule: Q04DX003 (ip), vehicle: saline sonified 101 % of control

CCOC(=O)c1ccc(NC(N)=S)cc1
inactive: dose: 50.0 mg/kg/injection, schedule: Q01DX009 (ip), vehicle: other 98 % of control | dose: 100.0 mg/kg/injection, schedule: Q01DX009 (ip), vehicle: other 95 % of control | dose: 200.0 mg/kg/injection, schedule: Q01DX009 (ip), vehicle: other 95 % of control | dose: 400.0 mg/kg/injection, schedule: Q01DX009 (ip), vehicle: other 91 % of control

ClC1C(c2ccccc2)=C(c2ccccc2)c2ccccc21 (configuration not stated)
inactive: [9] 87 % of control | [10] 91 % of control | [11] 101 % of control | [12] 98 % of control

Cc1ccc(OC(=O)Nc2cccc3ccccc23)cc1C
inactive: [13] 95 % of control | [14] 91 % of control

Cc1ccc(S(=O)(=O)NNC(=O)c2ccccc2C(=O)O)cc1
inactive: dose: 50.0 mg/kg/injection, schedule: Q04DX002 (ip), vehicle: saline with Tween-80 96 % of control | [13] 100 % of control | [14] 100 % of control | dose: 400.0 mg/kg/injection, schedule: Q04DX002 (ip), vehicle: saline with Tween-80 96 % of control

CCCN(CCC)S(=O)(=O)c1ccc(NC(=O)Oc2ccc([N+](=O)[O-])cc2)cc1
inactive: [15] 94 % of control | [16] 100 % of control | [17] 95 % of control

C(/C=C\c1ccccc1)=Nc1ccccc1
inactive: [1] 93 % of control | [2] 93 % of control | dose: 100.0 mg/kg/injection, schedule: Q01DX001 (ip), vehicle: saline sonified 93 % of control | [3] 95 % of control | [18] 101 % of control | [11] 97 % of control | [12] 92 % of control

CC(=O)OC(C)CC(C)(C)OC(C)=O (configuration not stated)
inactive: [9] 95 % of control | [10] 92 % of control | [19] 103 % of control

CC1(C)OCC(C2CCC3(C)C4=CCC5C(C)(C)C(O)CCC5(C)C4CCC23C)CC(O)C1O (configuration not stated)
inactive: [20] 101 % of control | [21] 95 % of control | [22] 97 % of control

NC/C(=N\O)c1ccc(-c2ccccc2)cc1
inactive: dose: 100.0 mg/kg/injection, schedule: Q01DX001 (ip), vehicle: Klucel (hydroxypropylcellulose) (HPC) 91 % of control | dose: 200.0 mg/kg/injection, schedule: Q01DX001 (ip), vehicle: Klucel (hydroxypropylcellulose) (HPC) 91 % of control | dose: 400.0 mg/kg/injection, schedule: Q01DX001 (ip), vehicle: Klucel (hydroxypropylcellulose) (HPC) 91 % of control

BrC1CCCCCCC1
inactive: [23] 92 % of control | [24] 98 % of control | dose: 400.0 mg/kg/injection, schedule: Q04DX003 (ip), vehicle: saline with Tween-80 95 % of control

COc1ccc(C2C(C(C)=O)=C(C)NC(C)=C2C(C)=O)cc1
inactive: [23] 88 % of control | [24] 87 % of control

COc1ccc(CC(=O)O)cc1OC
inactive: [18] 94 % of control | [11] 103 % of control | [12] 89 % of control

COc1ccc(C(=O)C2(O)Oc3ccccc3C2=O)cc1 (configuration not stated)
inactive: dose: 50.0 mg/kg/injection, schedule: Q01DX001 (ip), vehicle: saline 98 % of control | [15] 98 % of control | [16] 98 % of control | [17] 117 % of control

C(CC1CO1)C1CO1 (configuration not stated)
inactive: [20] 98 % of control and 104 % of control | [21] 98 % of control and 104 % of control | [22] 92 % of control and 96 % of control | dose: 20.0 mg/kg/injection, schedule: Q01DX009 (ip), vehicle: Klucel (hydroxypropylcellulose) (HPC) 98 % of control and 104 % of control | dose: 40.0 mg/kg/injection, schedule: Q01DX009 (ip), vehicle: Klucel (hydroxypropylcellulose) (HPC) 95 % of control and 98 % of control | dose: 49.5 mg/kg/injection, schedule: Q01DX009 (ip), vehicle: Klucel (hydroxypropylcellulose) (HPC) 122 % of control | dose: 80.0 mg/kg/injection, schedule: Q01DX009 (ip), vehicle: Klucel (hydroxypropylcellulose) (HPC) 96 % of control and 98 % of control

CCC(C)NCCO (configuration not stated)
inactive: dose: 75.0 mg/kg/injection, schedule: Q01DX001 (ip), vehicle: saline 96 % of control | dose: 150.0 mg/kg/injection, schedule: Q01DX001 (ip), vehicle: saline 104 % of control | dose: 300.0 mg/kg/injection, schedule: Q01DX001 (ip), vehicle: saline 104 % of control

O=C=Nc1ccc(N=Nc2ccccc2)cc1
inactive: [5] 89 % of control | [6] 88 % of control | [9] 95 % of control | [18] 98 % of control | [19] 90 % of control

COc1cccc2c1CCC1(O)OC(=O)CC21 (configuration not stated)
inactive: [15] 98 % of control | [16] 98 % of control | [17] 95 % of control

CCC[CH2][Pb]([CH2]CCC)([CH2]CCC)[O]C(C)=O
inactive: dose: 2.5 mg/kg/injection, schedule: Q01DX001 (ip), vehicle: other 96 % of control | dose: 5.0 mg/kg/injection, schedule: Q01DX001 (ip), vehicle: other 115 % of control | dose: 10.0 mg/kg/injection, schedule: Q01DX001 (ip), vehicle: other 93 % of control | [7] 95 % of control | [8] 87 % of control
